In brackets after ≈: the same amount, converted by molar mass. Counter-ions that a name gives are not always drawn. Like-named read-outs stand apart in the source and are kept apart here.
Assays:
[1] = Nephelometric Solubility Measurement; assay type: physicochemical; settings: aqueous buffer, kinetic from dmso stock; phosphate buffered saline pH 7.4, 37° C., incubation 2 minutes
Protocol: Nephelometric Solubility Measurement
BMG Labtech Nephelostar (S/N 504-0167), 37° C.; Gain: 100; Laser Beam Focus 1.5 mm; Laser intensity 80%; measurement time/well 0.1 s; positioning delay 0.1 s; data analysis: BMG Labtech MARS software
Measurements with BMG Labtech Nephelostar performed though addition of DMSO stock solutions of compound (2, 5, 10, 20, 30, 40, 50, 60, 80, 100 [μg/mL]) into phosphate buffered saline (pH 7.4, purchased from Invitrogen, catalogue number 10010-056); incubation time: 2 minutes [blank measurement contains DMSO (2.5 μL) and buffered saline (47.5 μL)]; Detection of insoluble particles in liquid samples was performed by measuring forward scattered light.

[2] = target: T1, CRAC channel (endogenous SOC in HEK293 cells) (Homo sapiens, UniProt Q96D31); assay: HEK Calcium Influx Assay (FLIPR); assay type: cell-based
T1 construct: endogenous in cells; host or cells: HEK293 (ECACC)
T1 sequence (Q96D31 whole entry): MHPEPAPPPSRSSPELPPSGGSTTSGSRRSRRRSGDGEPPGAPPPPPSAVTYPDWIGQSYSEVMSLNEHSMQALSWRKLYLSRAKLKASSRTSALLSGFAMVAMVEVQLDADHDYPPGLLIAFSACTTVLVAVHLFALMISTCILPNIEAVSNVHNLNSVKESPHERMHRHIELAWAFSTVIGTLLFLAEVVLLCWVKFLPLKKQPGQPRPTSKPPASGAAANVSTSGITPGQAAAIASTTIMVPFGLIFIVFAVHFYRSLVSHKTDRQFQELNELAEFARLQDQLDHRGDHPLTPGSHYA
Protocol: The effect of compounds of the invention on intracellular [Ca^2+] was tested in the HEK293 cell line (ECACC). HEK293 cells were cultured in DMEM/F12/Glutamax (Gibco) containing 10% FCS (Gibco), and maintained at 37° C., 5% CO2. Cell were split twice a week [3*10^6 (Mon-Thu) and 1*10^6 (Thu-Mon) cells/50 ml medium in T-175 ZK culture flasks, respectively]. Twenty four hours pre-experiment, cells were seeded on 96 well plates (Poly-D-Lysine 96well Black/Clear Plate, BD Biocoat REF 356640) at a density of 40,000 cells/well in DMEM/F12 (Gibco) containing 10% FCS (Gibco), and maintained at 37° C., 5% CO2. Prior to store-depletion, cell culture medium was removed and cells were loaded with the a Calcium-sensitive fluorescent dye comprised within the Calcium-4-assay kit (Molecular Devices) in nominally Ca^2+-free HBS buffer (140 mM NaCl, 4 mM KCl, 0.2 mM MgCl2, 11 mM D-glucose, and 10 mM HEPES, pH 7.4) according to manufacturer's instruction for 60 min at 37° C., 5% CO2. Passive depletion of intracellular Ca^2+-stores was then triggered by employing the SERCA inhibitor thapsigargin (2 μM final) for 10 min in the dark (RT). To prevent immediate Ca^2+-entry via the activated Store-operated channels (SOCs), cells were maintained in Ca^2+-free HBS buffer comprising 100 μM EGTA during store-depletion. Intracellular changes in [Ca^2+] were subsequently monitored with the FLIPR device (Molecular Devices). In brief, baseline imaging post-store depletion was allowed for 1 min before adjusting the extracellular buffer to 3 mM CaCl2. Increases in intracellular [Ca^2+] due to pre-activated SOC channels were monitored for 15 min until intracellular Ca^2+ levels had declined into a steady-state. Finally, compounds were administered and Ca^2+ signals were recorded for additional 10 min. Inhibition of endogenous SOC in HEK293 cells was quantified employing the average Ca^2+ signal measured from 9.5-10 min post-administration. Zero percent inhibition (MAX) was defined as the Ca^2+ signal recorded from wells to which DMSO-only had been added instead of compound. Hundred percent inhibition (MIN) was defined as the signal obtained from wells in which cells haven't been treated with TG prior to Ca^2+ addition and to which DMSO-only had been added instead of compound. For routine IC50 determinations of compounds, 8 concentrations of a serial dilution (1:3.16) were tested, starting off from 10 μM. Reliable IC50's could consequently be determined only, if they were at least sub 2.5-3 μM.

[3] = system: Interleukin-2 (IL-2) production/release in Jurkat T cell line; assay: Jurkat IL-2 Production Assay; assay type: cell-based; settings: Homo sapiens; Jurkat T cells, PHA stimulation 22 hours
Protocol: Jurkat IL-2 Production Assay
The effect of compounds of the invention on Interleukin-2 (IL-2) production/release was tested in the Jurkat T cell line (ECACC) clone E6-1. Jurkat T cells were cultured in DMEM/F12/Glutamax (Gibco) containing 10% FCS (Gibco), and maintained at 37° C., 5% CO2. Cell were split twice a week [5*10^6 (Mon-Thu) and 1*10^7 (Thu-Mon) cells/50 ml medium in T-175 ZK culture flasks, respectively]. Prior to experiment, cells were seeded on 96 well plates (Cellstar 96 Well; Cat No. 655180, Greiner bio-one) at a density of 5*10^5 cells/well in DMEM/F12/Glutamax (Gibco) containing 10% FCS (Gibco), and incubated for 60 min at 37° C., 5% CO2. Subsequently, compounds were added and cells were allowed to incubate for 30 min at 37° C., 5% CO2. Cells were then stimulated with 15 μg/ml Phytohemagglutinin (PHA; Sigma) for 22 hours at 37° C., 5% CO2. Before sampling of the supernatants, cells were spun down (200*g/5 min/RT). The amount of IL-2 released into the supernatant was quantified with the human IL-2 AlphaLisa kit (Perkin Elmer) according to manufacturer's instructions. Luminescence proximity measurements were carried out in the Synergy H4 reader (BioTek) employing the fluorescence setting of the reader (ex: 680/30 nm; em: 620/40 nm). Inhibition of IL-production/release in/from Jurkat T cells was quantified as follows: Zero percent inhibition (MAX) was defined as the [IL-2] determined in supernatants derived from cells to which PHA & DMSO-only had been added instead of compound. Hundred percent inhibition (MIN) was defined as the [IL-2] determined in supernatants derived from cells that had been pre-treated with 1 μM CyclosporineA (Sigma) before the addition of 15 μg/ml PHA. For routine IC50 determinations of compounds, 8 concentrations of a serial dilution (1:3.16) were tested, starting off from 10 μM.

[4] = thapsigargin store depletion, read-out: % inhib. [@ 10 μM] FLIPR

| SMILES | solubility at 2 min [1] | inhibition at 10 µM [2, 4] | IC50 [3] | inhibition at 10 µM ([2]; numeric values of Table 2, read-out: inhib. [@ 10 μM] FLIPR) |
| --- | --- | --- | --- | --- |
| CCOc1cc(C)c(-c2ccc(NC(=O)c3c(F)cccc3F)cc2)cn1 [Comparative example #3, reference compound] | < 14 µM |  |  |  |
| COc1cc(OC)c(-c2ccc(NC(=O)c3c(F)cccc3F)cc2)cn1 [Comparative example #4, reference compound] | 38.8 µM (≈ 14.4 µg/mL) |  |  |  |
| COc1ncc(-c2nn(C)c(=O)o2)cc1-c1ccc(NC(=O)c2c(F)cccc2F)cc1 [Comparative example #5, reference compound] | < 11 µM |  |  |  |
| Cn1nc(C(=O)Nc2c(F)cccc2F)cc1-c1cnc(C2CC2)cc1C(F)(F)F [Example 48, 5-[6-Cyclopropyl-4-(trifluoromethyl)-pyridin-3-yl]-N-(2,6-difluoro-phenyl)-1-methyl-1H-pyrazole-3-carboxylic acid amide] |  | > 70% | 0.5 to 1 µM |  |
| CCOc1cc(OC2COC2)c(-c2cc(C(=O)Nc3c(F)cccc3F)nn2C)cn1 [Example 49, N-(2,6-Difluoro-phenyl)-5-[6-ethoxy-4-(oxetan-3-yloxy)-pyridin-3-yl]-1-methyl-1H-pyrazole-3-carboxylic acid amide] |  | 50 to 70% | 1 to 5 µM |  |
| COc1cc(OCC2COC2)ncc1-c1cc(C(=O)Nc2c(F)cccc2F)nn1C [Example 51, N-(2,6-Difluoro-phenyl)-5-[4-methoxy-6-(oxetan-3-yl-methoxy)-pyridin-3-yl]-1-methyl-1H-pyrazole-3-carboxylic acid amide] |  | 50 to 70% | 1 to 5 µM |  |
| COc1cc(C2CC2)ncc1-c1cc(C(=O)Nc2c(F)cccc2F)nn1C [Example 54, 5-(6-Cyclopropyl-4-methoxy-pyridin-3-yl)-N-(2,6-difluoro-phenyl)-1-methyl-1H-pyrazole-3-carboxylic acid amide] |  | > 70% | < 0.5 µM |  |
| COc1cc(OCC2CCC2)ncc1-c1cc(C(=O)Nc2c(F)cccc2F)nn1C [Example 55, 5-[6-(Cyclobutyl-methoxy)-4-methoxy-pyridin-3-yl]-N-(2,6-difluoro-phenyl)-1-methyl-1H-pyrazole-3-carboxylic acid amide] |  | > 70% | < 0.5 µM |  |
| COc1cc(Cl)c(-c2cc(C(=O)Nc3c(F)cccc3F)nn2C)cn1 [Example 56, 5-(4-Chloro-6-methoxy-pyridin-3-yl)-N-(2,6-difluoro-phenyl)-1-methyl-1H-pyrazole-3-carboxylic acid amide] |  | > 70% | 0.5 to 1 µM |  |
| COc1cc(OC)c(-c2c(Cl)c(C(=O)Nc3c(F)cccc3F)nn2C)cn1 [Example 57, 4-Chloro-N-(2,6-difluoro-phenyl)-5-(4,6-dimethoxy-pyridin-3-yl)-1-methyl-1H-pyrazole-3-carboxylic acid amide] |  | > 70% | 1 to 5 µM |  |
| Cc1cc(C(F)(F)F)ncc1-c1cc(C(=O)Nc2c(F)cccc2F)nn1C [Example 60, N-(2,6-Difluoro-phenyl)-1-methyl-5-[4-methyl-6-(trifluoromethyl)-pyridin-3-yl]-1H-pyrazole-3-carboxylic acid amide] |  | > 70% | 0.5 to 1 µM | 100% |
| COc1cc(OC2CC2)ncc1-c1cc(C(=O)Nc2c(F)cccc2F)nn1C [Example 61, 5-(6-Cyclopropyloxy-4-methoxy-pyridin-3-yl)-N-(2,6-difluoro-phenyl)-1-methyl-1H-pyrazole-3-carboxylic acid amide] |  | > 70% | < 0.5 µM |  |
| COc1cc(OC2COC2)ncc1-c1cc(C(=O)Nc2c(F)cccc2F)nn1C [Example 62, N-(2,6-Difluoro-phenyl)-5-[4-methoxy-6-(oxetan-3-yloxy)-pyridin-3-yl]-1-methyl-1H-pyrazole-3-carboxylic acid amide] |  | 50 to 70% | 1 to 5 µM |  |
| Cn1nc(C(=O)Nc2c(F)cncc2F)cc1-c1cnc(C2CC2)cc1C(F)(F)F [Example 63, 5-[6-Cyclopropyl-4-(trifluoromethyl)-pyridin-3-yl]-N-(3,5-difluoro-pyridin-4-yl)-1-methyl-1H-pyrazole-3-carboxylic acid amide] |  | > 70% | 1 to 5 µM |  |
| COc1cc(OC)c(-c2c(C)c(C(=O)Nc3c(F)cccc3F)nn2C)cn1 [Example 64, N-(2,6-Difluoro-phenyl)-5-(4,6-dimethoxy-pyridin-3-yl)-1,4-dimethyl-1H-pyrazole-3-carboxylic acid amide] |  | > 70% | 1 to 5 µM |  |
| COc1cc(OC)c(-c2c(C)c(C(=O)Nc3c(F)cncc3F)nn2C)cn1 [Example 65, N-(3,5-Difluoro-pyridin-4-yl)-5-(4,6-dimethoxy-pyridin-3-yl)-1,4-dimethyl-1H-pyrazole-3-carboxylic acid amide] |  | > 70% | 1 to 5 µM |  |
| COc1cc(OC)c(-c2c(C)c(C(=O)Nc3cnc(C)cc3C)nn2C)cn1 [Example 66, 5-(4,6-Dimethoxy-pyridin-3-yl)-N-(4,6-dimethyl-pyridin-3-yl)-1,4-dimethyl-1H-pyrazole-3-carboxylic acid amide] |  | 50 to 70% | 1 to 5 µM |  |
| COc1cc(OC)c(-c2c(C)c(C(=O)Nc3cncc(F)c3C)nn2C)cn1 [Example 67, 5-(4,6-Dimethoxy-pyridin-3-yl)-N-(5-fluoro-4-methyl-pyridin-3-yl)-1,4-dimethyl-1H-pyrazole-3-carboxylic acid amide] |  | > 70% | 1 to 5 µM |  |
| CCOc1cc(OC)c(-c2cc(C(=O)Nc3c(F)cccc3F)n[nH]2)cn1 [Example 68, N-(2,6-Difluoro-phenyl)-5-(6-ethoxy-4-methoxy-pyridin-3-yl)-1H-pyrazole-3-carboxylic acid amide hydrochloride] |  | > 70% | 1 to 5 µM |  |
| COc1cc(OC)c(-c2cc(C(=O)Nc3c(F)cccc3F)n[nH]2)cn1 [Example 69, N-(2,6-Difluoro-phenyl)-5-(4,6-dimethoxy-pyridin-3-yl)-1H-pyrazole-3-carboxylic acid amide hydrochloride] |  | > 70% | 1 to 5 µM |  |

Source: patent publication US20150166505A1, “PYRIDINYL-SUBSTITUTED PYRAZOLYL CARBOXAMIDES” (GRÜNENTHAL GMBH, priority 2013, published 2015)
